Assay results from a compilation of properties of binary mixtures (doi:10.1021/acs.jced.0c00588).

Experiment: xn = mol fraction of the nth substance listed
Conditions: 102 kPa

O=C(O)C(F)(F)C(F)(F)C(F)(F)C(F)(F)F + CC[n+]1ccn(C)c1.[Cl-]
viscosity [mPa·s]
Conditions | x2 = 0.3346 | x2 = 0.5026 | x2 = 0.6636
293.15 K | 35.2 | 92.1 | –
298.15 K | 29 | 72.1 | 213.4
303.15 K | – | 57.4 | 158.1
308.15 K | 20.4 | 46.4 | 119.8
313.15 K | – | 38.2 | 92.7
318.15 K | 14.99 | – | 73
323.15 K | 13.02 | – | 58.4
328.15 K | 11.4 | 22.58 | 47.5
333.15 K | 10.04 | – | –
338.15 K | – | – | 32.6
343.15 K | 7.94 | 14.53 | 27.5
348.15 K | 7.13 | – | 23.56
353.15 K | – | 11.25 | 20.29
